Data taken from patent US20220185811A1, “FGFR4 KINASE INHIBITOR AND PREPARATION METHOD THEREFOR AND USE THEREOF” (SHOUYAO HOLDINGS (BEIJING) CO., LTD., priority 2019, published 2022).
Where two headings read alike, the source gives them in different places.

Experiments:
FGFR1-4 = conditions: background art; equally high-efficiency inhibition of FGFR1-4; cited from earlier work
FGFR-4 kinase = FGFR-4 kinase (Homo sapiens, UniProt P22455); experiment: FGFR-4 kinase activity, homogeneous time-resolved fluorescence (HTRF) method; format: biochemical; conditions: ATP 25 μM, FGFR-4 kinase 1 nM, read-out: FGFR4 IC50
Sequence of FGFR-4 kinase (P22455 22-802): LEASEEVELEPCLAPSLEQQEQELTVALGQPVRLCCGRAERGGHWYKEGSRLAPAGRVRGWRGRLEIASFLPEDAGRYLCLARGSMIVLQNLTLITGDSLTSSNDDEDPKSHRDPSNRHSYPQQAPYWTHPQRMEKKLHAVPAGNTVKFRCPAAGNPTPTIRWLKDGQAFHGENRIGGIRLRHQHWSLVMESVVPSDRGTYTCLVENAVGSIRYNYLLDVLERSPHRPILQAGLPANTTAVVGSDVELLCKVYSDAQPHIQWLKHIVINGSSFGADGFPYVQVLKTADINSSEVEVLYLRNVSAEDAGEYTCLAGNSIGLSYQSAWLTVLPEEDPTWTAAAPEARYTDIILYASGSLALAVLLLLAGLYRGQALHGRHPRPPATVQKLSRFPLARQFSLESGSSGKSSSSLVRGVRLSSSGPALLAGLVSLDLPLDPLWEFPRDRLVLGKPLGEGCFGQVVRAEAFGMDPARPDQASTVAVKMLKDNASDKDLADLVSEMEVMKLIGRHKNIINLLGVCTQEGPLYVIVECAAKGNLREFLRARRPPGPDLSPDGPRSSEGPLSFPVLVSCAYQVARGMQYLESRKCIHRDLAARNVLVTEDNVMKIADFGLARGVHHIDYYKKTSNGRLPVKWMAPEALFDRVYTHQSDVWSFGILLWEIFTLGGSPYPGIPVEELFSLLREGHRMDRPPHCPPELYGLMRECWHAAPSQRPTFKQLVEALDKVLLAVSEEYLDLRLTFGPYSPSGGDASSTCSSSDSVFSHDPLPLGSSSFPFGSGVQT
Method: 1. In vitro determination of the protein activity of compounds: The FGFR-4 kinase activity detection platform was established by the homogeneous time-resolved fluorescence (HTRF) method, and the activity of the compound was determined. 1000 μM compounds were subjected to 3-fold gradient dilution in 100% DMSO 11 times (12 concentrations in total), 4 μL diluent from each concentration was added to 96 μL of reaction buffer (50 mM HEPES, pH 7.4, 5 mM MnCl2, 0.1 mM NaVO3, 0.001% Tween-20, 0.01% BAS, 1 mM DTT) and mixed well, as a 4* compound (final concentration of 0.017 nM-1000 nM) for later use. 2 * FGFR-4 kinase (final concentration of 1 nM) was formulated using reaction buffer and 4*substrate (ATP+TK peptide) (TK peptide, HTRF® KinEASETM-TK, purchased from Cisbio, TK peptide, final concentration of 1 μM, ATP final concentration of 25 μ M) was formulated using reaction buffer. 2.5 μL of 4*compound and then 5 μL of 2 * FGFR-4 kinase were added to a 384-well plate (OptiPlate-384, purchased from PerkinElmer), the mixture was mixed by centrifugation, and 2.5 μL of 4 * substrate mixture was added to start the reaction (total reaction volume of 10 µL). The 384-well plate was placed in an incubator 23° C. and stirred for 60 min before the reaction was stopped by the addition of 5 μL of Eu^3+cryptate-labeled anti-phosphotyrosine antibody (TRF® KinEASE™-TK, purchased from Cisbio) and 5 μL of Streptavidin-XL-665 (HTRF® KinEASE™-TK, purchased from Cisbio). After incubation in the incubator for 1 h, fluorescence values (excitation at 320 nm, detecting emitted light at 665 nm and 620 nm, and a ratio of the two as enzyme activity) were read on Envision (purchased from PerkinElmer). The enzyme activity of each compound was measured at 12 concentrations, and the ICso value of the compound was calculated using GraphPad Prism 5.0 software.
The FGFR-4 kinase activity detection platform was established by homogeneous time-resolved fluorescence (HTRF) method, and the activity of compound was determined. 1000 μM compounds were subjected to 3-fold gradient dilution in 100% DMSO 11 times (12 concentrations in total), 4 μL of diluent from each concentration was added to 96 μL of reaction buffer (50 mM HEPES, pH 7.4, 5 mM MnCl2, 0.1 mM NaVO3, 0.001% Tween-20, 0.01% BAS, 1 mM DTT) and mixed well, as a 4* compound (final concentration of 0.017 nM-1000 nM) for later use. 2 * FGFR-4 kinase (final concentration of 1 nM) was formulated using reaction buffer and 4*substrate (ATP+TK peptide)(TK peptide, HTRF® KinEASE™-TK, purchased from Cisbio, TK peptide, final concentration of 1 μM, ATP final concentration of 25 μM) was formulated using reaction buffer. 2.5 μL of 4 * compound and then 5 μL of 2 * FGFR-4 kinase were added to a 384-well plate (OptiPlate-384, purchased from PerkinElmer), the mixture was mixed by centrifugation, and 2.5 μL of 4 * substrate mixture was added to start the reaction (total reaction volume of 10 μL). The 384-well plate was placed in an incubator 23° C. and stirred for 60 min before the reaction was stopped by the addition of 5 μL of Eu^3+cryptate-labled anti-phosphotyrosine antibody (TRF® KinEASE™-TK, purchased from Cisbio) and 5 μL of Streptavidin-XL-665 (HTRF® KinEASE™-TK, purchased from Cisbio). After incubation in the incubator for 1 h, fluorescence values (excitation at 320 nm, detecting emitted light at 665 nm and 620 nm, and a ratio of the two as enzyme activity) were read on Envision (purchased from PerkinElmer). The enzyme activity of each compopund was measured at 12 concentrations, and the ICso value of the compound was calculated using GraphPad prism 5.0 software.

[1] = Pharmacokinetics in male SD rats, single intragastric administration; format: in vivo; conditions: 5 mg/kg suspension, plasma; for AUC(0-inf) / Cmax / Tmax / half-life: rat, po
Method: (§1) Male SD rats (Beijing Vital River Laboratory Animal Technology Co., Ltd.) were divided into groups of 3 rats each. The rats were subjected to 5 mg/kg suspension of the test sample by single intragastric administration, respectively. Animals were fasted overnight prior to the experiment from 10 h before dosing to 4 h after dosing. Blood was collected 0.25, 0.5, 1, 2, 4, 6, 8, and 24 h after administration. After isoflurane anesthesia using a small animal anesthesia machine, 0.3 mL of whole blood samples was collected from the fundus venous plexus, placed in a heparin anticoagulant tube, and were centrifuged at 4° C., 4000 rpm for 5 min, plasma was transferred to the centrifuge tube, and stored at −80° C. until analysis. Samples in the plasma were extracted using protein precipitation and the extracts were analyzed by LC/MS/MS.
as §1, with “taken through” for “collected from”, “-80°” for “−80°”

[2] = system: Human hepatoma cells Hep3b; experiment: Cell proliferation inhibition, Cell Titer-Glo; format: cell-based; conditions: Hep3B, 72 h
Method: 2. Determination of cell proliferation activity of compounds:
Cell Titer-Glo ® detection reagent from Promega was used to establish the suspension cell proliferation inhibition screening method. Human hepatoma cells Hep3b (Xiehe Cell Research Center) were cultured in 25 cm^2 or 75 cm^2 plastic tissue culture flasks (Corning®) filled with MEM (Gibco®) medium supplemented with 10% fetal bovine serum (Hyclone®) under 37° C., 95% air and 5% CO2, and subcultured 2-3 times a week.
(§2) Hep3b cells were seeded in a 96-well cell culture plate (Corning®) at a density of 3×10^3 cells/well, […], and cultured under 37° C., 95% air, and 5% CO2. After 24 h the test compound was added: 10 mM compounds (dissolved in DMSO) were subjected to 3-fold gradient dilution in DMSO , […] of diluent from each concentration was added to […] of serum-free medium, and finally […] of compound diluted in the medium was added to the plate seeded with cells. The final concentration of DMSO in the cell culture medium was 0.1% and the final concentration of the test compound was 0.3 nM-[…]. The above cells were incubated for 3 days under 37° C.
After 3 days, the cell viability assay was performed by the Cell Titer-Glo (Promega) kit, and finally, the inhibitory concentration 50% of the compound on cell proliferation, i.e. the IC 50 value, was calculated by the GraphPad Prism 5.0 program.
as §2, with “DMSO,” for “DMSO ,”, “finally,” for “finally”, “of” for “of the”
After 3 days, the cell viability assay was performed by the Cell Titer-Glo (Promega) kit, and finally the inhibitory concentration 50% of the compound on cell proliferation, i.e. the IC 50 value, was calculated by the GraphPad Prism 5.0 program.

[3] = second PK table, read-out: T½ (converted)
[4] = first PK table, read-out: T1/2 (converted)

IC50 (FGFR-4 kinase; Table 2) [nM]	AUC(0-inf) ([1]; second PK table) [ng·h/mL]	Cmax ([1]; second PK table) [ng/mL]	Tmax ([1]; second PK table) [h]	half-life [1, 3] [min]	IC50 ([2]; Table 2, 3 days incubation) [nM]	Structure (SMILES)	other results
–	–	–	–	–	–	COc1cc(OC)cc(N(CCNC(C)C)c2ccc3ncc(-c4cnn(C)c4)nc3c2)c1 [JNJ-42756493]	IC50 on FGFR1-4 (FGFR1-4): single-digit nanomolar level
1.1	3940	505	2.67	238	63.2	C=CC(=O)Nc1cc(-c2cc3c(cn2)cc(-c2c(Cl)c(OC)cc(OC)c2Cl)c2nccn23)c(OC)cc1N1CCN(C2CC2)CC1 [Example 59]	–
–	–	–	–	–	–	C=CC(=O)Nc1cc(-c2cc3c(cn2)cc(-c2c(Cl)c(OC)cc(OC)c2Cl)c2nccn23)c(OC)cc1N1C2CCC1COC2 [Example 6, N-(2-(3-oxa-8-azabicyclo[3 .2.1]octan-8-yl)-5-(4-(2,6-dichloro-3,5-dimethoxyphenyl)imidazo[1,2-a][1,6]naphthyridin-8-yl)-4-methoxyphenyl)acrylamide]	AUC(0-inf) ([1]; first PK table): 2560 ng·h/mL; Cmax ([1]; first PK table): 236 ng/mL; Tmax ([1]; first PK table): 6 h; half-life [1, 4]: 690 min; IC50 ([2]; Table 1, 3 days incubation): 58.3 nM
2.21	–	–	–	–	66.1	C=CC(=O)N[C@H]1CCOC[C@H]1Nc1ncc2cc(-c3c(Cl)c(OC)cc(OC)c3Cl)ccc2n1 [Blu-554, reference compound]	IC50 (FGFR-4 kinase; Table 1): 7.49 nM; T½ ([1]; second PK table): 1.64 h; AUC(0-inf) ([1]; first PK table): 1680 ng·h/mL; Cmax ([1]; first PK table): 362 ng/mL; Tmax ([1]; first PK table): 2.67 h; half-life [1, 4]: 98.4 min; IC50 ([2]; Table 1, 3 days incubation): 162 nM
1.7	3050	561	1.17	156	121	C=CC(=O)Nc1cc(-c2cc3c(cn2)cc(-c2c(Cl)c(OC)cc(OC)c2Cl)c2nccn23)c(OC)cc1N1C[C@@H]2C[C@H]1CO2 [Example 61, N-(2-((1S,4S)-2-oxa-5-azabicyclo[2.2.1]heptan-5-yl)-5-(4-(2,6-dichloro-3,5-dimethoxyphenyl)imidazo[1,2-a][1,6]naphthyridin-8-yl)-4-methoxyphenyl)acrylamide]	–
–	–	–	–	–	–	C[C@@H](Oc1ccc2[nH]nc(/C=C/c3cnn(CCO)c3)c2c1)c1c(Cl)cncc1Cl [LY2874455]	IC50 on FGFR1-4 (FGFR1-4): single-digit nanomolar level

Structure (SMILES)	IC50 (FGFR-4 kinase; Table 2) [nM]	AUC(0-inf) ([1]; second PK table) [ng·h/mL]	Cmax ([1]; second PK table) [ng/mL]	Tmax ([1]; second PK table) [h]	half-life [1, 3] [min]	IC50 ([2]; Table 2, 3 days incubation) [nM]	other results
C=CC(=O)Nc1cc(-c2cc3c(cn2)cc(-c2c(Cl)c(OC)cc(OC)c2Cl)c2nccn23)c(OC)cc1N1CCC2(CCOC2)C1 (stereo not shown) [Example 62, N-(5-(4-(2,6-dichloro-3,5-dimethoxyphenyl)imidazo[1,2-a][1,6]naphthyridin-8-yl)-4-methoxy-2-(2-oxa-7-azaspiro[4, 4]nonan-7-yl)phenyl)acrylamide]	2.4	1120	175	5.33	296	43.8	–
